# Structures can show the parent of a compound that is named as a salt.
# Columns and labels:
# [1] = system: patients with a solid tumour; test: Phase I study, toxicity (CTC criteria) of GI147211 30 min i.v. infusion daily x 5 every 3 weeks; format: in vivo, human
# Description: British Journal of Cancer (1996) 73, 744-750 O (C? 1996 Stockton Press All rights reserved 0007-0920/96 $12.00 Phase I and pharmacological study of the new topoisomerase I inhibitor G1147211, using a daily x 5 intravenous administration CJH Gerrits', GJ Creemers', JHM Schellens', P Wissel2, AS Th Planting', R Kunka2, K Selinger2, M de Boer-Dennert', Y Marijnen3, M Harteveld' and J Verweijl 'Department of Medical Oncology, Rotterdam Cancer Institute, Rotterdam, The Netherlands; 2Glaxo Wellcome Inc, Department of Clinical Pharmacology, NC, USA; 3Glaxo Wellcome Inc, Department of Clinical Research, Zeist, The Netherlands. Summary Topoisomerase I inhibitors are interesting anti-cancer agents with a novel mechanism of action. […] In subsequent patient cohorts the dose was escalated from 0.3 to 1.5 mg m-2 day-'. Pharmacokinetics analysis was performed on days 1 and 4 of the first course using a validated high- performance liquid chromatographic assay and non-compartmental methods. […] Its further development was stopped because of unpredictable and severe myelosuppression, gastrointestinal toxicity and haemorrhagic cystitis. In the late 1980s two discoveries brought about a renewal of interest in CPT; firstly, topoisomerase I was identified as the single cellular target of CPT (Hsiang et al., 1985; Hsiang and Liu, 1988) and, secondly, an overexpression of topoisomerase I was found in various tumour cell lines but not in normal tissues (Giovanella et al., 1989; Hirabayaski et al., 1992; Potmesil et al., 1988). Topoisomerase I is a nuclear enzyme that resolves topological problems of the torsionally strained (supercoiled) DNA (Slichenmyer et al., 1993). This is achieved by forming a covalent adduct between topoisome- rase I and the DNA, termed the cleavable complex. This catalytic intermediate creates single-strand DNA breaks, allowing the DNA molecule to rotate around the intact DNA strand at the cleavage site, leading to a relaxation of the DNA molecule and in this way replication, transcription and other DNA functions can proceed. These enzyme- bridged breaks are then resealed by topoisomerase I. CPT stabilises the cleavable complexes, thereby preventing resealing of single-strand DNA breaks in the presence of the drug (Covey et al., 1989; D'Arpa and Liu, 1989; Eng et al., 1988). Cytotoxicity is specific to the S-phase of the cell cycle because the double-strand breaks that occur during this phase are more difficult to repair in the presence of the drug (Horwitz and Horwitz, 1973). […] Other eligibility criteria included: (1) age>, 18 years; (2) an Eastern Cooperative Oncology Group (ECOG) performance status <2; (3) a predicted life expectancy of at least 3 months; (4) no previous anti-cancer therapy for at least 3 weeks (6 weeks for previous nitro- soureas or mitomycin C); (5) adequate haemato- poietic (WBC) 3 x 109 -', ANC > 1.5 x 109 1-' and platelets 100 x 10 1- 1), hepatic (bilirubin within normal limits, AST, ALT and/or alkaline phosphatase < 2.0 x normal), and renal (serum creatinine < 130 imol 1-') functions. All patients gave written informed consent.
# bone marrow cultures = settings: ref Emerson et al., 1995; cited from earlier work
# [2] = 0.3 mg m-2 day-1, 3 patients, 10 evaluable courses
# [3] = 0.6 mg m-2 day-1, 3 patients, 18 evaluable courses
# [4] = 0.9 mg m-2 day-1, 3 patients, 9 evaluable courses
# [5] = 1.2 mg m-2 day-1, 6 patients, 15 evaluable courses
# [6] = 1.2 mg m-2 day-1, n=6, Table III
# [7] = 1.2 mg m-2 day-1, n=7, Table III
# [8] = 1.5 mg m-2 day-1, 6 patients, 15 evaluable courses
# [9] = 1.5 mg m-2 day-1, n=7, Table III
# [10] = 1.5 mg m-2 day-1, n=13, Table III
smiles,measurement,setting,value
"CC[C@@]1(O)C(=O)OCc2c1cc1n(c2=O)Cc2c-1nc1cc3c(cc1c2CN1CCN(C)CC1)OCCO3 [GI147211, [7 - (methylpiperazinomethylene) - 10,11 - ethylene-dioxy-20(S)] camptothecin dihydrochloride]","Leucocytes CTC grade 1, number of courses",[1]; [2],0
same,"Leucocytes CTC grade 2, number of courses",[1]; [2],0
same,"Leucocytes CTC grade 3, number of courses",[1]; [2],0
same,"Leucocytes CTC grade 4, number of courses",[1]; [2],0
same,"Neutrophils CTC grade 1, number of courses",[1]; [2],0
same,"Neutrophils CTC grade 2, number of courses",[1]; [2],0
same,"Neutrophils CTC grade 3, number of courses",[1]; [2],0
same,"Neutrophils CTC grade 4, number of courses",[1]; [2],0
same,"Platelets CTC grade 1, number of courses",[1]; [2],0
same,"Platelets CTC grade 2, number of courses",[1]; [2],0
same,"Platelets CTC grade 3, number of courses",[1]; [2],0
same,"Platelets CTC grade 4, number of courses",[1]; [2],0
same,"Leucocytes CTC grade 1, number of courses",[1]; [3],8
same,"Leucocytes CTC grade 2, number of courses",[1]; [3],0
same,"Leucocytes CTC grade 3, number of courses",[1]; [3],0
same,"Leucocytes CTC grade 4, number of courses",[1]; [3],0
same,"Neutrophils CTC grade 1, number of courses",[1]; [3],4
same,"Neutrophils CTC grade 2, number of courses",[1]; [3],1
same,"Neutrophils CTC grade 3, number of courses",[1]; [3],0
same,"Neutrophils CTC grade 4, number of courses",[1]; [3],0
same,"Platelets CTC grade 1, number of courses",[1]; [3],1
same,"Platelets CTC grade 2, number of courses",[1]; [3],0
same,"Platelets CTC grade 3, number of courses",[1]; [3],0
same,"Platelets CTC grade 4, number of courses",[1]; [3],0
same,"Leucocytes CTC grade 1, number of courses",[1]; [4],3
same,"Leucocytes CTC grade 2, number of courses",[1]; [4],1
same,"Leucocytes CTC grade 3, number of courses",[1]; [4],1
same,"Leucocytes CTC grade 4, number of courses",[1]; [4],0
same,"Neutrophils CTC grade 1, number of courses",[1]; [4],0
same,"Neutrophils CTC grade 2, number of courses",[1]; [4],4
same,"Neutrophils CTC grade 3, number of courses",[1]; [4],1
same,"Neutrophils CTC grade 4, number of courses",[1]; [4],0
same,"Platelets CTC grade 1, number of courses",[1]; [4],4
same,"Platelets CTC grade 2, number of courses",[1]; [4],2
same,"Platelets CTC grade 3, number of courses",[1]; [4],1
same,"Platelets CTC grade 4, number of courses",[1]; [4],0
same,"ANC nadir, range",[1]; 1.2 mg m-2 day-1,0.08-5.6 x 109 l-1
same,"grade 3-4 neutropenia, courses",[1]; 1.2 mg m-2 day-1,7/15
same,"grade 3-4 thrombocytopenia, courses",[1]; 1.2 mg m-2 day-1,6/15
same,median ANC nadir,[1]; 1.2 mg m-2 day-1,1.29e+09 L⁻¹
same,median platelet nadir,[1]; 1.2 mg m-2 day-1,7.4e+10 L⁻¹
same,"platelet nadir, range",[1]; 1.2 mg m-2 day-1,33-379 x 109 l-1
same,subsequent courses postponed owing to prolonged myelosuppression,[1]; 1.2 mg m-2 day-1,6/15
same,"Leucocytes CTC grade 1, number of courses",[1]; [5],1
same,"Leucocytes CTC grade 2, number of courses",[1]; [5],1
same,"Leucocytes CTC grade 3, number of courses",[1]; [5],4
same,"Leucocytes CTC grade 4, number of courses",[1]; [5],2
same,"Neutrophils CTC grade 1, number of courses",[1]; [5],2
same,"Neutrophils CTC grade 2, number of courses",[1]; [5],2
same,"Neutrophils CTC grade 3, number of courses",[1]; [5],1
same,"Neutrophils CTC grade 4, number of courses",[1]; [5],6
same,"Platelets CTC grade 1, number of courses",[1]; [5],0
same,"Platelets CTC grade 2, number of courses",[1]; [5],1
same,"Platelets CTC grade 3, number of courses",[1]; [5],6
same,"Platelets CTC grade 4, number of courses",[1]; [5],0
same,"Day nadir, thrombocytopenia (range)",[1]; [6],15 (10-19) day
same,Median day of occurrence of grade 3-4 thrombocytopenia (range),[1]; [6],15 (15-15) day
same,Median number of days from grade 3-4 to recovery > grade 2 thrombocytopenia (range),[1]; [6],7 (2-8) days
same,"Day nadir, neutropenia (range)",[1]; [7],22 (13-22) day
same,Median day of occurrence of grade 3-4 neutropenia (range),[1]; [7],15 (10-19) day
same,Median number of days from grade 3-4 to recovery > grade 2 neutropenia (range),[1]; [7],10 (1_10) days
same,"ANC nadir, range",[1]; 1.5 mg m-2 day-1,0.01-1.7 x 109 l-1
same,"grade 3-4 neutropenia, courses",[1]; 1.5 mg m-2 day-1,13/15
same,"grade 3-4 neutropenia, per cent of courses",[1]; 1.5 mg m-2 day-1,86%
same,median ANC nadir,[1]; 1.5 mg m-2 day-1,9e+07 L⁻¹
same,median platelet nadir,[1]; 1.5 mg m-2 day-1,6.2e+10 L⁻¹
same,"platelet nadir, range",[1]; 1.5 mg m-2 day-1,10-116 x 109 l-1
same,thrombocytopenia complicated by gastrointestinal bleeding,[1]; 1.5 mg m-2 day-1,two
same,"thrombocytopenia grade 3-4, courses",[1]; 1.5 mg m-2 day-1,7/15
same,"thrombocytopenia grade 3-4, per cent of courses",[1]; 1.5 mg m-2 day-1,46%
same,"treatment delay, courses",[1]; 1.5 mg m-2 day-1,5 of the 15 courses
same,"Leucocytes CTC grade 1, number of courses",[1]; [8],0
same,"Leucocytes CTC grade 2, number of courses",[1]; [8],9
same,"Leucocytes CTC grade 3, number of courses",[1]; [8],3
same,"Leucocytes CTC grade 4, number of courses",[1]; [8],3
same,"Neutrophils CTC grade 1, number of courses",[1]; [8],2
same,"Neutrophils CTC grade 2, number of courses",[1]; [8],0
same,"Neutrophils CTC grade 3, number of courses",[1]; [8],2
same,"Neutrophils CTC grade 4, number of courses",[1]; [8],11
same,"Platelets CTC grade 1, number of courses",[1]; [8],2
same,"Platelets CTC grade 2, number of courses",[1]; [8],6
same,"Platelets CTC grade 3, number of courses",[1]; [8],4
same,"Platelets CTC grade 4, number of courses",[1]; [8],3
same,"Day nadir, thrombocytopenia (range)",[1]; [9],15 (13 15) day
same,Median day of occurrence of grade 3-4 thrombocytopenia (range),[1]; [9],15 (10-15) day
same,Median number of days from grade 3-4 to recovery > grade 2 thrombocytopenia (range),[1]; [9],8 (5-12) days
same,"Day nadir, neutropenia (range)",[1]; [10],15 (13 -22) day
same,Median day of occurrence of grade 3-4 neutropenia (range),[1]; [10],10 (5-25) day
same,Median number of days from grade 3-4 to recovery > grade 2 neutropenia (range),[1]; [10],11 (4-25) days
same,infectious complications,"[1]; 1.5 mg m-2 day-1, two life-threatening septic",Three
same,maximal tolerated dose,"[1]; 30 min i.v. infusion daily x 5, every 3 weeks",1.2 mg m-2 day-1
same,severity of nausea and vomiting,[1]; CTC grade,never worse than grade 1-2
same,cumulative myelotoxicity,[1]; all dose levels,not observed
same,"mild headache, courses",[1]; all dose levels,eight
same,"mild headache, per cent of courses",[1]; all dose levels,12%
same,"nausea, per cent of given courses",[1]; all dose levels,44%
same,other non-haematological toxicities,[1]; all dose levels,"no diarrhoea, mucositis, liver or renal toxicity"
same,"vomiting, per cent of given courses",[1]; all dose levels,22%
same,"nausea, number of given courses","[1]; all dose levels, 67 courses",30 courses
same,"vomiting, number of given courses","[1]; all dose levels, 67 courses",15 courses
same,dose-limiting toxicities,[1]; at 1.5 mg m-2 day-1,neutropenia and thrombocytopenia
same,myelotoxicity,"[1]; first two dose levels (0.3, 0.6 mg m-2 day-1)",No myelotoxicity
same,alopecia grade 1,[1]; highest two dose levels,three
same,anaemia,[1]; in vivo,occurred frequently but was never severe
same,recommended dose for phase II studies,[1]; x 5 every 3 weeks,1.2 mg m-2
same,myelotoxicity compared with topotecan,bone marrow cultures,more myelotoxic than topotecan
